Columns and labels:
[1] = tested on: T-cell activation in rat whole blood; experiment: Example 4: IL-17A release in thapsigargin stimulated rat whole blood; type: cell-based, rat (Lewis or Sprague-Dawley); details: 24 Hr, at least 2 replicates, unit inferred, read-out: IC50 (inhibition of IL-17A release)
Source text: Rat whole blood was used to assess the potency of Kv1.3 inhibitor peptides on T-cell activation as determined by IL-17A release after stimulation with thapsigargin. Addition of thapsigargin results in activation of a signalling cascade ending up in activation of T cell proliferation and cytokine production where the Kv1.3 ion channel plays a key role, so activity of Kv1.3 inhibitors in primary cells can be measured in this experimental system.
Rat whole blood was obtained from healthy, naïve Lewis or Sprague-Dawley rats that were terminally bleed from the heart using Sodium Heparin blood sampling tubes for collection. Peptides were diluted to 4× final testing concentrations in assay buffer (DMEM+GlutaMAX), GlutaMAX is a medium comprising 3.97 mM L-alanine-L-glutamine (Gibco Cat #61965026) supplemented with 25 mM HEPES buffer, 1 mM Sodium Pyruvate, 100 units/ml Penicillin, 100 μg/ml Streptomycin and 0.05% Casein from bovine milk (Sigma-Aldrich)) and 25 μl was added to wells of a 96 well plate. Then 50 μl whole rat blood was added and incubated for minimum 5 minutes at room temperature to allow compound binding. Then 25 μl 40 μM thapsigargin diluted in assay buffer was added to all wells of the assay plates to activate the cells, followed by incubation for 24 Hr at 37° C./5% CO2 in a humidified box. The assay plates were centrifuged for 10 min at 300 g at 4° C. and the supernatants were transferred to new plates. The concentrations of IL-17A released to the supernatants were measured using a Rat IL-17A ELISA Kit (Abcam Cat #ab214028) as recommended by the manufacturer. Samples were diluted 2.5-fold by transferring 20 μl of the supernatants to wells on ELISA plates containing 30 μl buffer 75BS from the detection kit.
Data from peptides eliciting an inhibition of IL-17A were normalised relative to full thapsigargin activation (no inhibitor added) and no activation controls (addition of assay buffer instead of thapsigargin) to calculate the IC50 from the concentration response curve.
Results are shown in Table 5, expressed as IC50, with standard deviation (IC50_SD). All values are derived from at least 2 replicates. The biological effects ex vivo show a correlation with the potency of the peptides.

Kv1.2 = molecular target: T1, Kv1.2 (Homo sapiens, UniProt P16389); experiment: Patch clamp assay (QPatch), Kv1.2; type: cell-based; details: QPatch; CHO cells stably expressing human Kv1.2; read-out: Potency IC50, Kv1.2
T1 construct: expressed in transfected cells

Kv1.6 = molecular target: T2, Kv1.6 (Homo sapiens, UniProt P17658); experiment: Patch clamp assay (QPatch), Kv1.6; type: cell-based; details: QPatch; CHO cells stably expressing human Kv1.6; read-out: Potency IC50, Kv1.6
T2 construct: expressed in transfected cells
T2 sequence (P17658 whole entry): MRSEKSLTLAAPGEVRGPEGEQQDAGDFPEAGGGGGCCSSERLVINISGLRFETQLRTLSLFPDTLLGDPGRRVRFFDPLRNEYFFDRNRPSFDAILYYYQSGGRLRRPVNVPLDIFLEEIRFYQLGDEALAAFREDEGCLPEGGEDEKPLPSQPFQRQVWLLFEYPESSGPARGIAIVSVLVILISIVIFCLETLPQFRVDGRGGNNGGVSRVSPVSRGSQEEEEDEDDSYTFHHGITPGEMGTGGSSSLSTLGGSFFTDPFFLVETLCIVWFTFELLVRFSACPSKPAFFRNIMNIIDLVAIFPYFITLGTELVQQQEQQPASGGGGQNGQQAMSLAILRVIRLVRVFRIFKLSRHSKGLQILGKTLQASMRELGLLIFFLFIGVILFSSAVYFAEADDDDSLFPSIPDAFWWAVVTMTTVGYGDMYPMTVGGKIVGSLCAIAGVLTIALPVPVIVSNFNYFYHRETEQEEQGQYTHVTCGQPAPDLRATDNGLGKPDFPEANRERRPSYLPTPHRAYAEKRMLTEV

T1 sequence (P16389 whole entry): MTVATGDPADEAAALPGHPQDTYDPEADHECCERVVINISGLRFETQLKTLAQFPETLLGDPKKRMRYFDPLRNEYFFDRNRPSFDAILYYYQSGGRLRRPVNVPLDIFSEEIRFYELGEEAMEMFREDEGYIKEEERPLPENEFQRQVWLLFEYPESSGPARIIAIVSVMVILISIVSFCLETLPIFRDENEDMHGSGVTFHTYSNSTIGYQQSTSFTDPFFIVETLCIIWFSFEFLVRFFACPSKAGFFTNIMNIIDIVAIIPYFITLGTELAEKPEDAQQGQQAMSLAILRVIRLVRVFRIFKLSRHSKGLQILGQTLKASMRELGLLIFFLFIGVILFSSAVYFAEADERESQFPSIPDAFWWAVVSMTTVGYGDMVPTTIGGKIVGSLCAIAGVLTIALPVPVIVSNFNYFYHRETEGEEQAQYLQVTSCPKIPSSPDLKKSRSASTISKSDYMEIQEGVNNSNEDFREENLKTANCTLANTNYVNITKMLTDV

| Substance | IC50 [1] | other results |
| --- | --- | --- |
| H-LRC(1)SASVEC(2)KQKC(3)LKAIGSIFGKC(1)[Nle]NKKC(2)KC(3)YPR-OH [Peptide 115] | 2.1 nM | – |
| H-P[Nle]E[Nle]RC(1)SASVEC(2)KQKC(3)LLAIGSIFGKC(1)[Nle]NKKC(2)KC(3)YPR-OH [Peptide 103] | 0.5 nM | – |
| H-S[Nle]D[Nle]RC(1)SASVEC(2)KQKC(3)LKAIGSIFGKC(1)MNKKC(2)KC(3)[F(4-F)]PR-NH2 [Peptide 94] | 0.34 nM | – |
| H-P[Nle]D[Nle]RC(1)SASVEC(2)KQKC(3)LKAIGC(4)IFGKC(1)[Nle]NKKC(2)KC(3)YPC(4)-OH [Peptide 86] | 1.1 nM | – |
| H-S[Nle]D[Nle]RC(1)SASVEC(2)KQKC(3)LKAIGSIFG[homo-Lys]C(1)MNKKC(2)KC(3)YPR-NH2 [Peptide 71] | 2.7 nM | – |
| H-PIDERC(1)SASVEC(2)KQKC(3)LAAIGSIFGKC(1)[Nle]NKKC(2)KC(3)YPR-OH [Peptide 104] | 0.87 nM | – |
| H-C(1)SASVEC(2)KQKC(3)LKAIGC(4)IFGKC(1)[Nle]NKKC(2)KC(3)YPC(4)-NH2 [Peptide 89] | 1.1 nM | – |
| H-P[Nle]D[Nle]RC(1)SASVEC(2)AQKC(3)LAAIGSIFGKC(1)MNKKC(2)KC(3)YPR-OH [Peptide 106] | 0.32 nM | – |
| H-N[Nle]D[Nle]RC(1)SASVEC(2)QQKC(3)LKAIGSIFGKC(1)[Nle]NKKC(2)KC(3)YPR-NH2 [Peptide 45] | 1.1 nM | – |
| H-NMDMRC(1)SASVEC(2)KQKC(3)LKAIGSIFGKC(1)MNKKC(2)VC(3)YPR-NH2 [Peptide 39] | 2.8 nM | – |
| H-S[Nle]D[Nle]RC(1)SASVEC(2)KQKC(3)LKAIGSIFGKC(1)MNKKC(2)KC(3)[F(4-NO2)]PR-NH2 [Peptide 95] | 1.3 nM | – |
| H-S[Nle]D[Nle]RC(1)SASVEC(2)K[2-Amino-5-carboxypentanoyl]KC(3)LKAIGSIFGKC(1)MNKKC(2)KC(3)YPR-NH2 [Peptide 75] | 0.52 nM | – |
| Ac-LRC(1)SASVEC(2)KQKC(3)LAAIGSIFGKC(1)MNKKC(2)KC(3)YPR-OH [Peptide 123] | 0.36 nM | – |
| H-S[Nle]D[Nle]RC(1)SASVEC(2)KQKC(3)LVAIGSIFGKC(1)MNKKC(2)KC(3)YPR-NH2 [Peptide 80] | 0.39 nM | – |
| H-N[Nle]D[Nle]RC(1)SASVEC(2)EQKC(3)LKAIGSIFGKC(1)[Nle]NKKC(2)KC(3)YPR-NH2 [Peptide 44] | 0.99 nM | – |
| H-RSCIDTIPKSRCTAFQCKHSMKYRLSFCRKTCGTC-OH [ShK, reference compound] | – | IC50 (Kv1.2): 11 nM; IC50 (Kv1.6): 0.19 nM |
| Ac-LRC(1)SASVEC(2)KQKC(3)LAAIGSIFGKC(1)[Nle]NKKC(2)KC(3)YPR-OH [Peptide 122] | 0.9 nM | – |
| H-S[Nle]D[Nle]RC(1)SASVEC(2)KQKC(3)LAAIGC(4)IFGKC(1)[Nle]NKKC(2)KC(3)YPC(4)-NH2 [Peptide 90] | 0.73 nM | – |
| H-S[Nle]D[Nle]RC(1)SASVEC(2)KQKC(3)LKAIGSIFGKC(1)MNKKC(2)KC(3)YQ-NH2 [Peptide 76] | 1.6 nM | – |
| H-NMDMRC(1)SASVEC(2)KQKC(3)LKAIHSIFGKC(1)MNKKC(2)KC(3)YPR-NH2 [Peptide 34] | 0.7 nM | – |
| H-S[Nle]D[Nle]RC(1)SASVEC(2)KEKC(3)LQAIGSIFGKC(1)[Nle]NKKC(2)KC(3)YPR-NH2 [Peptide 87] | 0.69 nM | – |
| H-S[Nle]D[Nle]RC(1)SASVEC(2)KQKC(3)LKAIGSIFGKC(1)MNKKC(2)KC(3)[F(4-CH3)]PR-NH2 [Peptide 96] | 0.54 nM | – |
| H-S[Nle]D[Nle]RC(1)SASVEC(2)VQKC(3)LKAIGSIFGKC(1)MNKKC(2)KC(3)YPR-NH2 [Peptide 74] | 0.47 nM | – |
| H-P[Nle]D[Nle]RC(1)SASVEC(2)KEKC(3)L[homo-Gln]AIGSIFGKC(1)[Nle]NKKC(2)KC(3)YPR-NH2 [Peptide 88] | 1.4 nM | – |
| H-S[Nle]D[Nle]RC(1)SASVEC(2)KQKC(3)LKAIGSIFGKC(1)[Nle]NKKC(2)KC(3)YPR-OH [Peptide 68] | 0.52 nM | – |
| H-S[Nle]D[Nle]RC(1)SA[Abu]VEC(2)KQKC(3)LKAIGSIFGKC(1)MNKKC(2)KC(3)YPR-NH2 [Peptide 70] | 0.93 nM | – |

— patent US20260325605A1, “INHIBITORS” (Zealand Pharma A/S, priority 2022, published 2026)
